From patent publication US6630488B1, “Quinolizinones as integrin inhibitors” (Biochem Pharma, Inc., priority 1998, dated 2003) come the findings set out here.

Where only a bound is given, the exact number is not on record here.

One series deals with T1, placental αvβ3 (Homo sapiens, UniProt P05106+P06756).
T1 construct: purified active GP IIb-IIIa (Calbiochem) or olacental αvβ3 at 0.5 μg/ml; from tissue; host or cells: placenta
Kind of series: Fibrinogen binding to immobilized αvβ3. As to conditions: biotinylated-fibrinogen 10 nM, immobilized placental αvβ3; read-out: IC50 values for the fibrinogen binding assay αvβ3. Here is the method:
(§1) Nonbound fibrinogen was removed by five washes with binding buffer. Avidin conjugated to alkaline phosphatase (Sigma), diluted in binding buffer, was added and incubated for two hours at 37° C. The plates were washed five times with binding buffer, and after addition of the substrate PNPP (Pierce), the enzyme activity was measured by the absorbance at 405 nm.

A further series has as its target T2, GP IIb-IIIa (αIIbβ3) (Homo sapiens, UniProt P05106+P08514).
T2 construct: purchased Calbiochem
Briefly: Fibrinogen binding to immobilized GP IIb-IIIa (αIIbβ3). As to conditions: biotinylated-fibrinogen 10 nM, immobilized GP IIb-IIIa; read-out: IC50 values for the fibrinogen binding assay αIIbβ3. As to the method: as §1

A further series deals with T3, αvβ3 (Homo sapiens, UniProt P05106+P06756).
T3 construct: expressed in transfected cells; host or cells: K562
Briefly: Cell attachment assay, K562 transfected with αvβ3. As to conditions: ligand osteopontin, read-out: Cell attachment IC50, αvβ3, Osteo-Pontin. Format: cell-based. Here is the method:
(§2) The wells of 96-well plates (Immunolon) were coated, by incubation overnight at 4° C., with 5 μg/ml of vitronectin or osteopontin, 10 μg/ml of fibronectin or 10 mg/ml BSA in PBS. The protein solution was flicked out and the wells were blocked with 10 mg/ml BSA (0.1 ml) for 1-2 hours at 37° C.
(§3) Cells were lifted with trypsin-EDTA and washed two times with Hank's balanced salt solution (Sigma) supplemented with 1 mM MgCl2. Cells (75,000 cells/well) were added to coated plates in triplicate and allowed to attach at 37° C. for 1 hour in the presence or absence of specific antibodies at 5 μ/ml or increasing concentrations of compounds of interest (0.001-10 μM). Nonadherent cells were removed by gentle washing twice with PBS. The adherent cells were solubilized with 1% triton X-100 and detected using a fluorescence plate reader (Perkin Elmer).
(§4) The number of attached cells was calculated based upon starched curves for each cell line used in the experiment. […] The results presented are the average of triplicate samples and representative of several separate assays.

The target of the next series is T4, αvβ5 (Homo sapiens, UniProt P06756+P18084).
T4 construct: Cells [HT29 (ATOC), HMVEC (Cell Systems), K562 or K562 transfected with αvβ3; endogenous in cells; host or cells: HT29
Kind of series: Cell attachment assay, HT29. Format: cell-based. As to conditions: HT29; ligand vitronectin; read-out: Cell attachment IC50, αvβ5, Vitro-Nectin. Here is the method:
as §2, §3, §4

In a further series the target is T5, α5β1 (Homo sapiens, UniProt P05556+P08648).
T5 construct: Cell Line; K562 transfected αvβ3; HT29; K562; endogenous in cells; host or cells: K562
Briefly: Cell attachment assay, K562. Format: cell-based. As to conditions: ligand fibronectin, read-out: Cell attachment IC50, α5β1, Fibro-nectin. As to the method:
The wells of 96-well plates (Immunolon) were coated, by incubation overnight at 4° C., with 5 μg/ml of vitronectin or osteopontin, 10 μg/ml of fibronectin or 10 mg/ml BSA in PBS. The protein solution was flicked out and the wells were blocked with 10 mg/ml BSA (0.1 ml) for 1-2 hours at 37° C. Cells [HT29 (ATOC), HMVEC (Cell Systems), K562 or K562 transfected with αvβ3 (Blystone et al., 1994)] were loaded with a fluorescent marker, 5-chloromethylfluorescein diacetate (Molecular Probes, Eugene, Or) for 1 hour at 37° C., then incubated in fresh medium without the fluorescent marker for 1 hour.
as §3
The number of attached cells was calculated based upon starched curves for each cell line used in the experiment. Non-specific cell attachment (attachment to wells coated with BSA) was always less than 5%. The results presented are the average of triplicate samples and representative of several separate assays.

Series [1] in a line: Cell proliferation and cytotoxicity MTT assay, HMVEC. Format: cell-based. As to conditions: human, HMVEC endothelial cells. As to the method:
(§5) The wells of microtiter plates were seeded with 2000 cells/well (T24), 2500 cells/well (HT29), 5000 cells/well (HMVEC)or 2500 cells/well (IAFp2) in 100 μL, followed by an overnight culture for cell adhesion. […] Following culture for 72 hours, 3-(4,5-dimethyl-2-thiazolyl)-2,5-diphenyltetrazolium bromide (MTT; Sigma) at 2 mg/ml was added to each well (50 μL/well) and further incubated for 4 hours at 37° C. The medium was flicked out and 200 μL of a 1:1 solution of ethanol:acetone followed by 25 μL of glycine buffer (0.1 M glycine, 0.1M NaCl, pH 10.5) is added and the color measured by the absorbance at 570 nm.
(Tetrazolium dyes change colour on reduction, which living cells bring about.)

A short description of series [2]: Cell proliferation and cytotoxicity MTT assay, HT29. Format: cell-based. As to conditions: human, HT29 tumor cells. Here is the method: as §5
Series [3] is described as follows: Cell proliferation and cytotoxicity MTT assay, T24. As to conditions: human, T24 tumor cells. Format: cell-based. Here is the method:
as §5

Series [4] can be described thus: Cell proliferation and cytotoxicity MTT assay, IAFp2. In kind it is cell-based. As to conditions: IAFp2 skin fibroblasts, read-out: Cell proliferation and cytotoxicity IC50, IAFp2 Skin Fibroblast. As to the method: as §5
Series [5] relates to Chick Chorioallantoic Membrane (CAM) capillary formation. Kind of series: Chick chorioallantoic membrane (CAM) mesh assay. As to conditions: Day 12, 24 hr treatment. Format: in vivo, chicken. Here is the method:
Fertilized white leghorn chicken eggs (SPAFAS Inc., Norwich, Conn.) were received at day 0 and incubated for 3 days at 37 C with constant humidity. On day 3, eggs were rinsed with 70% ethanol and opened into 100 mm^2 tissue culture coated Petri dishes under aseptic conditions. The embryos were then returned to a humidified 38 C incubator for 7-9 additional days.
Vitrogen (Collagen Biomaterials, Palo Alto, Calif.) at a final concentration of 0.73 mg/ml and Matrigel (Becton Dickinson, Bedford, Mass.) at a final concentration of 10 mg/ml was directly pipetted onto Nylon meshes with 250 μm^2 openings which were cut into 4 mm×4 mm squares and autoclaved. Polymerization of meshes were under aseptic conditions, on bacteriological Petri dishes. The polymerization conditions for each substrate were identical; after mixing with or without […] of VPF/VEGF165 (Peprotech, Rocky Hill, N.J.) and/or compounds of interest, 40 μl were pipetted onto each mesh in a bacteriological Petri dish.
The Petri dish was placed in a humidified 37 C incubator with 5% CO2 for 30 minutes to allow polymerization followed by an incubation at 4 C for 2 hours.
In a tissue culture enclosure, meshes were placed onto the periphery of the CAM of a day 12-14 embryo, excluding areas containing major vessels. The embryos were then returned to the humidified 38 C incubator with 3% CO2 for 24 to 48 additional hours.
Embryos were removed from the incubator and meshes were viewed under a dissecting microscope for gross evaluation. Injection of 400 μl FITC dextran, MW 2,000,000 (Sigma, St. Louis, Mo.) through glass microcapillary tubes by infusion into the umbilical vein was performed at a rate of 200 μl per minute. The FITC dextran was allowed to circulate for 5 minutes and 3.7% formaldehyde in PBS was applied directly on each mesh. The embryos were then incubated at 4 C for 5 minutes and the meshes were dissected off the CAM and fixed in 3.7% formaldehyde for 10 minutes to overnight.
After fixation, meshes were mounted on slides with 90% glycerol in PBS and visualized on an inverted fluorescence microscope. A Nikon Diaphot with a Sony DXC-151A camera attached to the side port was used for capture of images and analysis was with the NIH Image 1.61 software program. For each mesh, 5 random staggered images (approximately 600 μm each) were captured. The areas of high intensity were highlighted and measured. Results are expressed as ability to suppress capillary formation after subtraction from negative control. Values were calculated as i inhibition, considering 100% the capillary density achieved by VPF in the presence of vitrogen alone minus the background levels in the absence of VPF. Negative values indicate angiogenic stimulation above the VPF positive control.

T3 sequence (P06756 31-889 limits assumed): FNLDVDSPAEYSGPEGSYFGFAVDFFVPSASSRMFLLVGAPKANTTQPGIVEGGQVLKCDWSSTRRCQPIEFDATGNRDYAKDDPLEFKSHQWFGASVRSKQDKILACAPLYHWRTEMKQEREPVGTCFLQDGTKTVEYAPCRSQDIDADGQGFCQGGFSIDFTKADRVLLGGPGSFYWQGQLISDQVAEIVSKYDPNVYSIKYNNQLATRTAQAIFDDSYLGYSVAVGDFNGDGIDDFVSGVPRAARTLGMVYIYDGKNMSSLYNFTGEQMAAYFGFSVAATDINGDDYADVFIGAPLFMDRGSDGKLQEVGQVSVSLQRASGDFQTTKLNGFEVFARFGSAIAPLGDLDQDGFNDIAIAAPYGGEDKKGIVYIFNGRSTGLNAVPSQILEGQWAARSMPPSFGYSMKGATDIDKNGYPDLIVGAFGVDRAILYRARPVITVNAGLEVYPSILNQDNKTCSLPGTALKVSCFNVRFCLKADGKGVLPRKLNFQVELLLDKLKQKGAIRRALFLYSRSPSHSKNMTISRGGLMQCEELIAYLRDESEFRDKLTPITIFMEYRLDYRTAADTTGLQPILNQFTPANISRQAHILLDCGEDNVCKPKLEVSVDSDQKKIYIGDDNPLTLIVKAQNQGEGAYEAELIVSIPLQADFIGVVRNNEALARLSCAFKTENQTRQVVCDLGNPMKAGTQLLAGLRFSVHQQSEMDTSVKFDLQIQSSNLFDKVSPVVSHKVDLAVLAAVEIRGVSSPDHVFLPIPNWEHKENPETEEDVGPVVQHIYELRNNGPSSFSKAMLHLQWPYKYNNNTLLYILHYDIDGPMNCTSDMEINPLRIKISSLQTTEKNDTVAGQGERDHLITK
T3 sequence (P06756 891-1048 partner limits assumed): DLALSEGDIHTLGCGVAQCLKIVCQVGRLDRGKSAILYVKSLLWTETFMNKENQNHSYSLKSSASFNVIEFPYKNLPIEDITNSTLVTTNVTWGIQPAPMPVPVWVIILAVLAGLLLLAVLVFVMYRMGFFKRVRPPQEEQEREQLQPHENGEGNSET
T3 sequence (P05106 27-788): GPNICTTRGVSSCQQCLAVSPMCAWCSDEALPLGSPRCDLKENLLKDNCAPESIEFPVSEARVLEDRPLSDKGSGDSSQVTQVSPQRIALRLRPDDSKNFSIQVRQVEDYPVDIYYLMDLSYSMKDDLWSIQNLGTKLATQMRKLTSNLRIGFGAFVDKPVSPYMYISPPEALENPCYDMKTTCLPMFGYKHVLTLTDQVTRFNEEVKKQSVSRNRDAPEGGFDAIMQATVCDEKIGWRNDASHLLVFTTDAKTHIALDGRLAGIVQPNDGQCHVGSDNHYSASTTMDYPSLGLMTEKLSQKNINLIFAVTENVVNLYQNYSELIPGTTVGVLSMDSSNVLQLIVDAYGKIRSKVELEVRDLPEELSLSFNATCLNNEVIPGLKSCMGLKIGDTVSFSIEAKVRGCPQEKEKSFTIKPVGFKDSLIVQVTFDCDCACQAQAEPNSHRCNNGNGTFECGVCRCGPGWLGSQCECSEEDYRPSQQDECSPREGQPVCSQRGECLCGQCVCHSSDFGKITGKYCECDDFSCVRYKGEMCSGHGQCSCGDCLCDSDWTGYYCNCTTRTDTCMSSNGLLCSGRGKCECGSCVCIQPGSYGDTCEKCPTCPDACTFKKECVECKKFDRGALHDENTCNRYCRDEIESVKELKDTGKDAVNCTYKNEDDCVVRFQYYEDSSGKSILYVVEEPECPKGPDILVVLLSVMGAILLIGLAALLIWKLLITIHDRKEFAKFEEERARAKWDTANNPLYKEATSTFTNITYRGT
T4 sequence (P06756 31-889 limits assumed): as the sequence (P06756 31-889 limits assumed) above
T4 sequence (P06756 891-1048 partner limits assumed): as the sequence (P06756 891-1048 partner limits assumed) above
T4 sequence (P18084 24-799): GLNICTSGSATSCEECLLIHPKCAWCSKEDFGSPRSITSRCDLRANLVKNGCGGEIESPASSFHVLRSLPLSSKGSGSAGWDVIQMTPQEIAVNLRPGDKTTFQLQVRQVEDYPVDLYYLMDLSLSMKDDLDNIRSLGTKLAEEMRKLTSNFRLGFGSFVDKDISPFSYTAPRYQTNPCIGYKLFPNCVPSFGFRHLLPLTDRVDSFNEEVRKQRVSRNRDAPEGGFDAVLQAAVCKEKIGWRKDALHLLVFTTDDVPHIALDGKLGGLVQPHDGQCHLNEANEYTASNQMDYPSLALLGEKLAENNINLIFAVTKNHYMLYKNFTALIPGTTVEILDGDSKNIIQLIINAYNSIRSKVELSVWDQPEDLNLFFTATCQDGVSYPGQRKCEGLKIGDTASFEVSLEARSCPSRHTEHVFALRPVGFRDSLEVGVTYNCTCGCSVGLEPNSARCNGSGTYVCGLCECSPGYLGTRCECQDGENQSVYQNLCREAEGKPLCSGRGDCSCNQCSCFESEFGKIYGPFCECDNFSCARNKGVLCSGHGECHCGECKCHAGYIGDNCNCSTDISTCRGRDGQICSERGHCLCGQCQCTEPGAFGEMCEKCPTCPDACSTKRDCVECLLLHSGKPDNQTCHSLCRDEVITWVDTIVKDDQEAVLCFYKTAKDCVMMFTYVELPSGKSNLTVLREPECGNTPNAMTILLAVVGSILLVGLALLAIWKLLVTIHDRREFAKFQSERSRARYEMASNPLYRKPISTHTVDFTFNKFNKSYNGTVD
T1 sequence (P06756 31-889 limits assumed): as the sequence (P06756 31-889 limits assumed) above
T1 sequence (P06756 891-1048 partner limits assumed): as the sequence (P06756 891-1048 partner limits assumed) above
T1 sequence (P05106 27-788): as the sequence (P05106 27-788) above
T5 sequence (P08648 42-894 limits assumed): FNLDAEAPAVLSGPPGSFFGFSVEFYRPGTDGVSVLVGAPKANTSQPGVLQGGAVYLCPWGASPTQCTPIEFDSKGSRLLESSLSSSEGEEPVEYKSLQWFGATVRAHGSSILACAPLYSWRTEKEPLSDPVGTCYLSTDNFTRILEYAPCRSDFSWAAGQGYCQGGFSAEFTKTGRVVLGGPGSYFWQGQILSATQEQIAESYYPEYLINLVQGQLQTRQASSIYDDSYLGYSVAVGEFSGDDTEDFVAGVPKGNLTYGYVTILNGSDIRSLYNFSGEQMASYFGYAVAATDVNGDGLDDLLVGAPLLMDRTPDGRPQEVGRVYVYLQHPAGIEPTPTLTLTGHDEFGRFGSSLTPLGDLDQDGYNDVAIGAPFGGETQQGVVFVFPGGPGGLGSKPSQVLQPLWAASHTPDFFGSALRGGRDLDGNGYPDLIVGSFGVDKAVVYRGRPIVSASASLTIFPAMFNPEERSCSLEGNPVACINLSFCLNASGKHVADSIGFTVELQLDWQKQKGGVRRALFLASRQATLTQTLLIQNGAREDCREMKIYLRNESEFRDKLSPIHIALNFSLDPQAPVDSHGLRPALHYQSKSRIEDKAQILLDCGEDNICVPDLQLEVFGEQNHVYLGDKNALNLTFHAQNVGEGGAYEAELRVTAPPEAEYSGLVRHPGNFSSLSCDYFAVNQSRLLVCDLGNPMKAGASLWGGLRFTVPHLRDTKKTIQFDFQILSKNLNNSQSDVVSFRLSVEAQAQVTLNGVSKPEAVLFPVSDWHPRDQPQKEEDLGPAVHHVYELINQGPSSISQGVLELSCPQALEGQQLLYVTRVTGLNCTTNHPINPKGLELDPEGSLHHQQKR
T5 sequence (P08648 895-1049 partner limits assumed): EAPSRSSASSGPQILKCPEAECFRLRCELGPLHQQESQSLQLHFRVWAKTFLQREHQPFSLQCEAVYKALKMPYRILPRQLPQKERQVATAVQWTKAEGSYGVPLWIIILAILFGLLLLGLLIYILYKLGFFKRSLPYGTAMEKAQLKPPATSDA
T5 sequence (P05556 21-798): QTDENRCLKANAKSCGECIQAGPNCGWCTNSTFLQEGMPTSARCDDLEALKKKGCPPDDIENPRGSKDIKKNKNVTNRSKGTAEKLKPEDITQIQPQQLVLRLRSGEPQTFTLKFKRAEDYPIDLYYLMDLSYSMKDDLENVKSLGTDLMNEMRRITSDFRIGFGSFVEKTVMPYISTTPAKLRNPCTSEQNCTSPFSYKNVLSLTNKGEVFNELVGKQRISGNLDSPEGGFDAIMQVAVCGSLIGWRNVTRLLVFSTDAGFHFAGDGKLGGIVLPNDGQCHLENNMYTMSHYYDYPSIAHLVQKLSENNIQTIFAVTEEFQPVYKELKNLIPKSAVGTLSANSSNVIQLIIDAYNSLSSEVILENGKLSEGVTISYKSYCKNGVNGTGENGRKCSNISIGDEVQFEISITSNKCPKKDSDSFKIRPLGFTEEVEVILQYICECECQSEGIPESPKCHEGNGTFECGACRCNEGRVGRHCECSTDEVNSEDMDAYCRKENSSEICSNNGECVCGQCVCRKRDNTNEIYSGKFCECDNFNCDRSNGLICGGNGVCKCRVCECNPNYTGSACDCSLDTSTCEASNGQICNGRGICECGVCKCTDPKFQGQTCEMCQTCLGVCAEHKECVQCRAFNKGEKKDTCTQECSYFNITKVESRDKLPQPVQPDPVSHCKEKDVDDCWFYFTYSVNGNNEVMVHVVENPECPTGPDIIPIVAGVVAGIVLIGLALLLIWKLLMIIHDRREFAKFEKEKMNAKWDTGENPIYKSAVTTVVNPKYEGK

As for `Cl.N=C(N)NCc1ccc2cc(C(=O)NC[C@H](NS(=O)(=O)c3ccccc3)C(=O)O)cc(=O)n2c1` [Compound XXVII, (S)-2-Benzenesulfonylamino-3-[(7-guanidinomethyl-4-oxo-4H-quinolizine-2-carbonyl)-amino]-propionic Acid Hydrochloride], the IC50 on placental αvβ3 is 15 nM; on GP IIb-IIIa (αIIbβ3), 250 nM; on αvβ3 it was 430 ± 180 nM; on αvβ5 it was 5800 ± 3600 nM; at α5β1 it was above 10000 nM. The IC50 at 72 h in [1] was 1200 ± 400 nM; in series [2], above 100000 nM; in series [3], above 100000 nM; in series [4] it was above 100000 nM. Further, the “CAM inhibition of capillary formation” value in series [5] (3 μg/mesh, +VPF) was 9%; in [5] (3 μg/mesh, −VPF), 5%; in [5] (17 μg/mesh, +VPF), 12%; in series [5] (17 μg/mesh, −VPF), 11%; in series [5] (33 μg/mesh, +VPF), 19%; in series [5] (33 μg/mesh, −VPF) it was 16%.
